From patent US9382254B2, “Compounds and pharmaceutical compositions thereof for the treatment of cystic fibrosis” (Galapagos NV, priority 2013, dated 2016) come the findings set out here.

The target of this test is T1, CFTR ΔF508 mutant (Homo sapiens, UniProt P13569, DEL508-508).
T1 construct: expressed in transfected cells; host or cells: CFBE41o- (adenoviral transduction)
Description: YFP-halide influx assay for the CFTR-ΔF508 mutation, gluconate buffer. It counts as cell-based. As to conditions: CFBE41o- cells, forskolin 10.67 μM. The text has this:
The YFP halide influx assay measures the functionality of the cystic fibrosis Transmembrane Conductance regulator (CFTR) channels in the cystic fibrosis bronchial epithelium cell line CFBE41o-. The assay is used to evaluate the capacity of compounds to increase the open probability of existing CFTR channels in the membrane. It makes use of the observation that the yellow fluorescent protein (YFP) variant YFP H148Q, I152L has its fluorescence substantially quenched by halide ions like Cl^− and I^−. (Galietta, Haggie, & Verkman, 2001) (Nagai, et al., 2002)
For this purpose, CFBE41o-cells are seeded in 96 well plates (6000 CFBE cells/well). One day after seeding, the CFBE cells are transduced with adenoviral vectors that direct the expression of the CFTR ΔF508 mutant and of the YFP reporter. Cells are incubated at 27° C., 5% CO2 for 24 hours so as to allow for the proper folding and migration to the membrane of the CFTR channel or treated with a CFTR modulator during 24 hours at 37° C.
The I^−-induced quenching of fluorescence is recorded immediately after injection of I^− for 7 seconds. The capacity of a compound to increase the channel opening is directly correlated with the decrease in fluorescence, and is expressed as (1-(fluorescence after 7 seconds (F)/fluorescence before injection (F0))) and an EC50 can be derived from a (1-F/F0) vs compound concentration plot.

Usually pEC50 stands for −log10 of the EC50, conventionally taken in molar units. Read a high pEC50 as a small EC50.

pEC50: −log10 of the molar value.

T1 sequence (P13569 with tags, fused parts or gaps DEL508-508): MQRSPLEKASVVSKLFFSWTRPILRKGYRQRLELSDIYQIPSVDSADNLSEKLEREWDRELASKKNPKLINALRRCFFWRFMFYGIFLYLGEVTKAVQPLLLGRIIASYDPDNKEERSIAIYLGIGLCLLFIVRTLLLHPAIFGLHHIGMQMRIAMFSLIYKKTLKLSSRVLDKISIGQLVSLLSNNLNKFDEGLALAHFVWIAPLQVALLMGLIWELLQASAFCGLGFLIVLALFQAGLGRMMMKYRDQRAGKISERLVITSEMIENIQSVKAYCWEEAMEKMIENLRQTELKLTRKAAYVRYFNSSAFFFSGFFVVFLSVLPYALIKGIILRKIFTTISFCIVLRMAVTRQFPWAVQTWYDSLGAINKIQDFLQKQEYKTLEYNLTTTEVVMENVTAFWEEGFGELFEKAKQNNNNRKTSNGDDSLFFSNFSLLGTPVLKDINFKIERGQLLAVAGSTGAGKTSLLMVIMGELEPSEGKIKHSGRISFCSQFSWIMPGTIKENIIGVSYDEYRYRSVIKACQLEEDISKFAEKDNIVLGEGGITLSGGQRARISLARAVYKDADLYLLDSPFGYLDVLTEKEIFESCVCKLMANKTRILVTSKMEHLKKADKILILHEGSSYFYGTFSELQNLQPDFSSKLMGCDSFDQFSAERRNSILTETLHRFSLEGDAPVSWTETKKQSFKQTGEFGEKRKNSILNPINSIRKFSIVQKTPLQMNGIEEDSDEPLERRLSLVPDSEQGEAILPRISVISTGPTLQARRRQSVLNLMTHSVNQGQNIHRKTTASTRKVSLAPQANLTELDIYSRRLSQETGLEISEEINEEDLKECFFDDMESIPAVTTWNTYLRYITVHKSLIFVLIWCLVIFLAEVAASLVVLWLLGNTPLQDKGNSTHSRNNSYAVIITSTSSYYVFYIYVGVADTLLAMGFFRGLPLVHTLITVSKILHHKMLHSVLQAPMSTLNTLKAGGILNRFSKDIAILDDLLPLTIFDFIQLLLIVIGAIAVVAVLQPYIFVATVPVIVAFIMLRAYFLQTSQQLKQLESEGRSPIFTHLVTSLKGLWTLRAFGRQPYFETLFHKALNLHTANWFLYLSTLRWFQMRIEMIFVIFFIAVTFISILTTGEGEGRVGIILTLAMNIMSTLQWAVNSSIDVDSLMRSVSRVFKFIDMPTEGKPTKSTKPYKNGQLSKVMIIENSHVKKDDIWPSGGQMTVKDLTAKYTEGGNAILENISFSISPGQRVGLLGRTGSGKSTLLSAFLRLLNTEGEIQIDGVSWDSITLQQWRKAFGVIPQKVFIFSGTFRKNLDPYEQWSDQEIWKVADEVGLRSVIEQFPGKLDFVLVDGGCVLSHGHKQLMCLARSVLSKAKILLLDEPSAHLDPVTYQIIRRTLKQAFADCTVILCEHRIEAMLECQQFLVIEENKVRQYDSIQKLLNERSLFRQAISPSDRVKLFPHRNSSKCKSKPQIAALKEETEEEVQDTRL

The compound `NC(=O)c1cc(S(=O)(=O)N2CCCC2)sc1NC(=O)c1cc2ccccc2s1` [Compound 55, N-(3-carbamoyl-5-(pyrrolidini-1-ylsulfonyl)thiophen-2-yl)benzo[b] thiophene-2-carboxamide] gave a pEC50 of 5.48. For `NC(=O)c1cc(S(=O)(=O)N2CCCC2)sc1NC(=O)c1cc[nH]n1` [Compound 56, N-(3-carbamoyl-5-(pyrrolidin-1-ylsulfonyl)thiophen-2-yl)-1H-pyrazole-3-carboxamide] the value was 6.69; for `NC(=O)c1cc(S(=O)(=O)N2CCCCC2)sc1NC(=O)C1(c2ccccc2)CC1` [Compound 57, 2-(1-phenylcyclopropanecarboxamido)-5-(piperidin-1-ylsulfonyl) thiophene-3-carboxamide], 5.60; for `N#CC1(C(=O)Nc2sc(S(=O)(=O)N3CCCCC3)cc2C(N)=O)CC1` [Compound 58, 2-(1-cyanocyclopropanecarboxamido)-5-(piperidin-1-ylsulfonyl) thiophene-3-carboxamide], 5.48.

For `NC(=O)c1cc(S(=O)(=O)N2CCCCC2)sc1NC(=O)c1cscn1` [Compound 59, N-(3-carbamoyl-5-(piperidin-1-ylsulfonyl)thiophen-2-yl)thiazole-4-carboxamide], the pEC50 is 6.74. Against the preceding compound, the pEC50 is 1.26 log units higher. For `NC(=O)c1cc(S(=O)(=O)N2CCCCC2)sc1NC(=O)c1cnn2ccccc12` [Compound 60, N-(3-carbamoyl-5-(piperidin-1-ylsulfonyl)thiophen-2-yl)pyrazolo[1,5-a]pyridine-3-carboxamide] the value was 5.72; for `NC(=O)c1cc(S(=O)(=O)N2CCCCC2)sc1NC(=O)C1(c2ccc(Cl)cc2)CC1` [Compound 61, 2-(1-(4-chlorophenyl)cyclopropanecarboxamido)-5-(piperidin-1-ylsulfonyl) thiophene-3-carboxamide], below 6.00.

In the case of `NC(=O)c1cc(S(=O)(=O)N2CCCCC2)sc1NC(=O)c1cncs1` [Compound 62, N-(3-carbamoyl-5-(piperidin-1-ylsulfonyl)thiophen-2-yl)thiazole-5-carboxamide], the pEC50 is 5.66.

For `NC(=O)c1cc(S(=O)(=O)N2CCOCC2)sc1NC(=O)c1cc[nH]n1` [Compound 63, N-(3-carbamoyl-5-(morpholinosulfonyl)thiophen-2-yl)-1H-pyrazole-3-carboxamide], the negative logarithm of the EC50 (pEC50) was 6.60. With `NC(=O)c1cc(S(=O)(=O)N2CCCCC2)sc1NC(=O)c1ccc(-c2cccnc2)s1` [Compound 64, N-(3-carbamoyl-5-(piperidin-1-ylsulfonyl)thiophen-2-yl)-5-(pyridin-3-yl)thiphene-2-carboxamide] the figure was 5.67; with `CC(C)(C)c1ccc(C(=O)Nc2sc(S(=O)(=O)N3CCC(F)(F)CC3)cc2C(N)=O)cc1` [Compound 65, 2-(4-tert-butylbenzamido)-5-(4,4-difluoropiperidin-1-ylsulfonyl)thiophene-3-carboxamide], 5.80; with `NC(=O)c1cc(S(=O)(=O)N2CCC(F)(F)CC2)sc1NC(=O)c1ccccc1F` [Compound 66, 5-(4,4-difluoropiperidin-1-ylsulfonyl)-2-(2-fluorobenzamido)thiophene-3-carboxamide], 6.82.

The compound `CC(C)(C)C(=O)Nc1sc(S(=O)(=O)N2CCC(F)(F)CC2)cc1C(N)=O` [Compound 67, 5-(4,4-difluoropiperidin-1-ylsulfonyl)-2-pivalamidothiophene-3-carboxamide] had a pEC50 of 6.60. With `CC(C)(C)c1cc(C(=O)Nc2sc(S(=O)(=O)N3CCOCC3)cc2C(N)=O)n[nH]1` [Compound 68, 5-tert-butyl-N-(3-carbamoyl-5-(morpholinosulfonyl)thiophen-2-yl)-1H-pyrazole-3-carboxamide] the figure was 6.89. For `CCc1cc(C(=O)Nc2sc(S(=O)(=O)N3CCOCC3)cc2C(N)=O)n[nH]1` [Compound 69, N-(3-carbamoyl-5-(morpholinosulfonyl)thiophen-2-yl)-5-ethyl-1H-pyrazole-3-carboxamide] the value was 6.83.
